Test results published in patent publication US10294248B2, “Beta-lactamase inhibitors” (VenatoRx Pharmaceuticals, Inc., priority 2013, dated 2019).

Tests used:
[1] = biological target: T1, SHV-5 β-lactamase (Class A ESBL) (Klebsiella pneumoniae, UniProt P0A3M1); assay: β-Lactamase inhibition, SHV-5; format: biochemical
T1 construct: made in house; host or cells: E. coli BL21(DE3)
In short: (§1)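 IC50 is the inhibitor level cutting initial substrate hydrolysis rate by 50% relative to no-inhibitor controls, after 15 min enzyme–inhibitor preincubation at 37 °C. KPC-2 read with imipenem at 300 nm, SHV-5 with cefotaxime at 260 nm; enzymes were untagged, E. coli-expressed, chromatographically purified.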

[2] = biological target: T2, KPC-2 β-lactamase (Class A carbapenemase) (Klebsiella pneumoniae, UniProt Q9F663); assay: β-Lactamase inhibition, KPC-2; format: biochemical; details: imipenem substrate, 300 nm; 15 min preincubation at 37° C., PBS pH 7.4
T2 construct: made in house; host or cells: E. coli BL21(DE3)
In short: as §1

[3] = biological target: T3, VIM-2 metallo-β-lactamase (Class B) (Pseudomonas aeruginosa, UniProt Q9K2N0); assay: β-Lactamase inhibition, VIM-2; format: biochemical; details: nitrocefin 100 μM, 486 nm; 15 min preincubation at 37° C., PBS pH 7.4
T3 construct: made in house; host or cells: E. coli BL21(DE3)
In short: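 Metallo-β-lactamase VIM-2 activity was tracked spectrophotometrically at 486 nm with 100 μM nitrocefin over 10 min, following 15 min preincubation with compound at 37 °C; inhibition was calculated per concentration.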

[4] = biological target: T4, p99 AmpC β-lactamase (Class C) (Enterobacter cloacae, UniProt P05364); assay: β-Lactamase inhibition, p99 AmpC; format: biochemical
T4 construct: made in house; host or cells: E. coli BL21(DE3)

[5] = biological target: T5, OXA-1 β-lactamase (Class D oxacillinase) (Escherichia coli, UniProt P13661); assay: β-Lactamase inhibition, OXA-1; format: biochemical; details: nitrocefin 100 μM, 486 nm; 15 min preincubation at 37° C., PBS pH 7.4
T5 construct: made in house; host or cells: E. coli BL21(DE3)
In short: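 Compounds are mixed with purified, untagged recombinant β-lactamase and held 15 min at 37 °C. Substrate is then added: nitrocefin (100 μM final) for OXA-1, imipenem for KPC-2, cefotaxime for SHV-5. Absorbance is followed immediately, and percent inhibition per concentration gives the IC50.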

[6] = system: E. coli ESBL4 expressing CTX-M-15; assay: Broth microdilution MIC, E. coli ESBL4 CTX-M-15; format: cell-based; details: fixed 4 μg/mL ceftazidime; CAMHB, 16-20 hours at 37° C.
In short: (§2)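 Visual MIC readout follows 16-20 h incubation at 37° C. Final compound range spans 32 down to 0.25 μg/ml in two-fold steps, each well also carrying a β-lactam at a static 4 μg/ml, with inoculation done by the CLSI microdilution method in cation-adjusted Mueller Hinton broth.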

[7] = system: E. cloacae 144200 expressing Class C P99 AmpC; assay: Broth microdilution MIC, E. cloacae 144200 p99 AmpC; format: cell-based; details: fixed 4 μg/mL ceftazidime; CAMHB, 16-20 hours at 37° C.
In short: as §2

[8] = system: K. pneumoniae 156319 expressing KPC-3; assay: Broth microdilution MIC, K. pneumoniae 156319 KPC-3; format: cell-based; details: fixed 4 μg/mL meropenem; CAMHB, 16-20 hours at 37° C.
In short: as §2

[9] = system: P. aeruginosa Ps296 expressing VIM-2; assay: Broth microdilution MIC, P. aeruginosa Ps296 VIM-2; format: cell-based; details: fixed 4 μg/mL meropenem; CAMHB, 16-20 hours at 37° C.
In short: as §2

[10] = system: K. pneumoniae A-1797 expressing KPC-2 and VIM-4; assay: Broth microdilution MIC, K. pneumoniae A-1797 KPC-2/VIM-4; format: cell-based; details: fixed 4 μg/mL meropenem; CAMHB, 16-20 hours at 37° C.
In short: as §2

[11] = system: S. aureus MSSA-7 producing penicillinase PC-1; assay: Broth microdilution MIC, S. aureus MSSA-7 PC-1; format: cell-based; details: fixed 4 μg/mL piperacillin; CAMHB, 16-20 hours at 37° C.
In short: as §2

T4 sequence (P05364 21-381): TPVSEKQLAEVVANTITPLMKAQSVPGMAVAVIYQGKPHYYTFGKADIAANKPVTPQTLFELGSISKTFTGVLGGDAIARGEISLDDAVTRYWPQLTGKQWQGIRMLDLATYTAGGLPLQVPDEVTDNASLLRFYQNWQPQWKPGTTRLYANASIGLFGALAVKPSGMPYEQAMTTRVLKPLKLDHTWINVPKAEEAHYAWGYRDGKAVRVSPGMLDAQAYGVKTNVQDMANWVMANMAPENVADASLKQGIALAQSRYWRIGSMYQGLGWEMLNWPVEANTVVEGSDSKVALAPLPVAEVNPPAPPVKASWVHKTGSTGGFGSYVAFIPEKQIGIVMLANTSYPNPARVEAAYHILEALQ
T2 sequence (Q9F663 25-293, looked up): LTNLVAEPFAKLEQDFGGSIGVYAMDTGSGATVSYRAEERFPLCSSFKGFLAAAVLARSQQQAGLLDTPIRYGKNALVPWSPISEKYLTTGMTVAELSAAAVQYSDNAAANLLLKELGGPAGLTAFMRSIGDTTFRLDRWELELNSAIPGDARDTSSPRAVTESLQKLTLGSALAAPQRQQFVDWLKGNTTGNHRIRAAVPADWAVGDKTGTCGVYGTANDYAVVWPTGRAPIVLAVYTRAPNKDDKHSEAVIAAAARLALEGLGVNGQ
T5 sequence (P13661 26-276): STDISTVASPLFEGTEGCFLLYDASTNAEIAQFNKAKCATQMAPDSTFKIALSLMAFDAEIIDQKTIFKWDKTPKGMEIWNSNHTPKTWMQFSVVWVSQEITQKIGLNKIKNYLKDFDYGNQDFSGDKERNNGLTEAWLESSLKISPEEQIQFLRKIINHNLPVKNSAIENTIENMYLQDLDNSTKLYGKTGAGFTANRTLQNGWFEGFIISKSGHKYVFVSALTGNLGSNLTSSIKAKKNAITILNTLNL
T1 sequence (P0A3M1 22-286): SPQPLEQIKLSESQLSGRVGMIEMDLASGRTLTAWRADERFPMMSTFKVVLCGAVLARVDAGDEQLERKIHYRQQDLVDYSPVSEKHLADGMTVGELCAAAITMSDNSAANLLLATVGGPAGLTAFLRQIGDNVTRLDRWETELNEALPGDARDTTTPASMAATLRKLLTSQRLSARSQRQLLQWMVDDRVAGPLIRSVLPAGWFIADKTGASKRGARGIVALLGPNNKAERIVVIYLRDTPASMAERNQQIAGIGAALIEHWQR

Structure (SMILES)	IC50 [1] [µM]	IC50 [2] [µM]	IC50 [3] [µM]	IC50 [4] [µM]	IC50 [5] [µM]	MIC of example compound in presence of fixed β-lactam: Fixed CAZ, E. coli ESBL4 CTX-M-15 [6]	MIC of example compound in presence of fixed β-lactam: Fixed CAZ, E. cl. 144200 p99 AmpC [7]	MIC of example compound in presence of fixed β-lactam: Fixed Mero, K. P. 156319 KPC-3 [8]	MIC of example compound in presence of fixed β-lactam: Fixed Mero, P. aerug. Ps296 VIM-2 [9]	MIC of example compound in presence of fixed β-lactam: Fixed Mero, K. P. A-1797 KPC-2 VIM-4 [10]	MIC of example compound in presence of fixed β-lactam: Fixed Pip, S. aureus MSSA-7 PC-1 [11]
O=C(COC1CCNCC1)N[C@H]1Cc2cccc(C(=O)O)c2OB1O [Example 39, 2-Hydroxy-3-[2-(piperidin-4-yloxy)-acetylamino]-3,4-dihydro-2H-benzo[e][1,2]oxaborinine-8-carboxylic acid]	0.1 to 1	< 0.1	0.1 to 1	< 0.1	< 0.1	C (the MIC in the presence of <4 μg/mL of a β-lactamase inhibitor)	C (the MIC in the presence of <4 μg/mL of a β-lactamase inhibitor)	C (the MIC in the presence of <4 μg/mL of a β-lactamase inhibitor)	C (the MIC in the presence of <4 μg/mL of a β-lactamase inhibitor)	B (the MIC in the presence of between 8 and 32 μg/mL of a β-lactamase inhibitor)	C (the MIC in the presence of <4 μg/mL of a β-lactamase inhibitor)
O=C(CNC1CCNCC1)N[C@H]1Cc2cccc(C(=O)O)c2OB1O [Example 40, 2-Hydroxy-3-[2-(piperidin-4-ylamino)-acetylamino]-3,4-dihydro-2H-benzo[e][1,2]oxaborinine-8-carboxylic acid]	< 0.1	0.1 to 1	0.1 to 1	< 0.1	< 0.1	C (the MIC in the presence of <4 μg/mL of a β-lactamase inhibitor)	C (the MIC in the presence of <4 μg/mL of a β-lactamase inhibitor)	B (the MIC in the presence of between 8 and 32 μg/mL of a β-lactamase inhibitor)	C (the MIC in the presence of <4 μg/mL of a β-lactamase inhibitor)	B (the MIC in the presence of between 8 and 32 μg/mL of a β-lactamase inhibitor)	C (the MIC in the presence of <4 μg/mL of a β-lactamase inhibitor)
NCCN1CCC(CC(=O)N[C@H]2Cc3cccc(C(=O)O)c3OB2O)CC1 [Example 41, 3-{2-[1-(2-Amino-ethyl)-piperidin-4-yl]-acetylamino}-2-hydroxy-3,4-dihydro-2H-benzo[e][1,2]oxaborinine-8-carboxylic acid]	< 0.1	< 0.1	0.1 to 1	< 0.1	< 0.1	C (the MIC in the presence of <4 μg/mL of a β-lactamase inhibitor)	C (the MIC in the presence of <4 μg/mL of a β-lactamase inhibitor)	C (the MIC in the presence of <4 μg/mL of a β-lactamase inhibitor)	C (the MIC in the presence of <4 μg/mL of a β-lactamase inhibitor)	C (the MIC in the presence of <4 μg/mL of a β-lactamase inhibitor)	C (the MIC in the presence of <4 μg/mL of a β-lactamase inhibitor)
CN(CC(=O)N[C@H]1Cc2cccc(C(=O)O)c2OB1O)C1CCNCC1 [Example 43, 2-Hydroxy-3-[2-(methyl-piperidin-4-yl-amino)-acetylamino]-3,4-dihydro-2H-benzo[e][1,2]oxaborinine-8-carboxylic acid]	< 0.1	< 0.1	0.1 to 1	< 0.1	< 0.1	C (the MIC in the presence of <4 μg/mL of a β-lactamase inhibitor)	C (the MIC in the presence of <4 μg/mL of a β-lactamase inhibitor)	C (the MIC in the presence of <4 μg/mL of a β-lactamase inhibitor)	C (the MIC in the presence of <4 μg/mL of a β-lactamase inhibitor)	C (the MIC in the presence of <4 μg/mL of a β-lactamase inhibitor)	C (the MIC in the presence of <4 μg/mL of a β-lactamase inhibitor)
O=C(O)c1cccc2c1OB(O)[C@@H](NC(=O)C1CCNCC1)C2 [Example 44, 2-Hydroxy-3-[(piperidine-4-carbonyl)-amino]-3,4-dihydro-2H-benzo[e][1,2]oxaborinine-8-carboxylic acid]	< 0.1	< 0.1	10 to 100	< 0.1	< 0.1	C (the MIC in the presence of <4 μg/mL of a β-lactamase inhibitor)	C (the MIC in the presence of <4 μg/mL of a β-lactamase inhibitor)	C (the MIC in the presence of <4 μg/mL of a β-lactamase inhibitor)	A (an MIC of the fixed β-lactam antibiotic in the presence of >32 μg/mL of a β-lactamase inhibitor)	A (an MIC of the fixed β-lactam antibiotic in the presence of >32 μg/mL of a β-lactamase inhibitor)	C (the MIC in the presence of <4 μg/mL of a β-lactamase inhibitor)
CN1CCC(CC(=O)N[C@H]2Cc3cccc(C(=O)O)c3OB2O)CC1 [Example 45, 2-Hydroxy-3-[2-(1-methyl-piperidin-4-yl)-acetylamino]-3,4-dihydro-2H-benzo[e][1,2]oxaborinine-8-carboxylic acid]	< 0.1	< 0.1	0.1 to 1	< 0.1	0.1 to 1	C (the MIC in the presence of <4 μg/mL of a β-lactamase inhibitor)	C (the MIC in the presence of <4 μg/mL of a β-lactamase inhibitor)	C (the MIC in the presence of <4 μg/mL of a β-lactamase inhibitor)	C (the MIC in the presence of <4 μg/mL of a β-lactamase inhibitor)	C (the MIC in the presence of <4 μg/mL of a β-lactamase inhibitor)	B (the MIC in the presence of between 8 and 32 μg/mL of a β-lactamase inhibitor)
O=C(O)c1cccc2c1OB(O)[C@@H](NC(=O)C1CNC1)C2 [Example 46, (R)-3-(azetidine-3-carboxamido)-2-hydroxy-3,4-dihydro-2H-benzo[e][1,2]oxaborinine-8-carboxylic acid]	< 0.1	0.1 to 1	1 to 10	< 0.1	0.1 to 1	C (the MIC in the presence of <4 μg/mL of a β-lactamase inhibitor)	C (the MIC in the presence of <4 μg/mL of a β-lactamase inhibitor)	B (the MIC in the presence of between 8 and 32 μg/mL of a β-lactamase inhibitor)	A (an MIC of the fixed β-lactam antibiotic in the presence of >32 μg/mL of a β-lactamase inhibitor)	A (an MIC of the fixed β-lactam antibiotic in the presence of >32 μg/mL of a β-lactamase inhibitor)	C (the MIC in the presence of <4 μg/mL of a β-lactamase inhibitor)
